Results taken from ChEMBL document CHEMBL1131782, “Synthesis, biological activity, and absolute stereochemical assignment of NPS 1392: a potent and stereoselective NMDA receptor antagonist” (Bioorg Med Chem Lett, 1999).

Legend:
Glutamate NMDA receptor [1] = test: Potency towards NMDA receptor measured as inhibition of (+)-[3-3H]MK-801 binding from synaptic plasma membrane obtained from rat cortex
Glutamate NMDA receptor [2] = test: Functional NMDA receptor antagonism expressed as inhibition of NMDA/glycine induced increase in cytosolic calcium in cultured rat cerebellar granule cells

| Structure (SMILES) | IC50 (Glutamate NMDA receptor [1]) [nM] | IC50 (Glutamate NMDA receptor [2]) [nM] |
| --- | --- | --- |
| C[C@@H](CN)C(c1cccc(F)c1)c1cccc(F)c1 | 141 | 75 |
| NCCC(c1cccc(F)c1)c1cccc(F)c1 | 230 | 63 |
| C[C@H](CN)C(c1cccc(F)c1)c1cccc(F)c1 | 2000 | 384 |
